Measurements from publication PMC9827864, “In Situ Inhibitor Synthesis and Screening by Fluorescence Polarization: An Efficient Approach for Accelerating Drug Discovery” (Angewandte Chemie (International Ed. in English), 2022).

Key:
[1] = target: T1, human prolyl hydroxylase 2 (PHD2) (Homo sapiens, UniProt Q9GZT9); assay: Fluorescence polarization (FP) competition assay of PHD2; conditions: purified compounds, 20 nM PHD2 (181-426), 30 nM probe, Cheng-Prusoff, mean±SD, read-out: Ki, binding affinity for PHD2
T1 construct: (181-426); made in house
T1 sequence (Q9GZT9 181-426): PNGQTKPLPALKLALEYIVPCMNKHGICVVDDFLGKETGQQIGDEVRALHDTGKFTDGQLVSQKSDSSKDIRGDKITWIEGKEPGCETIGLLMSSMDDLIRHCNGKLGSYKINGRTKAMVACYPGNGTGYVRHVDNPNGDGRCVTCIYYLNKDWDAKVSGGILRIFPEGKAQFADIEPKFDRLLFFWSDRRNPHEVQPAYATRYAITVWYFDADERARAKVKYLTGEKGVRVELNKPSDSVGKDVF
Description: 2.1 Fluorescence polarization (FP) competition assay of PHD2 [4]
FP assays were performed using a SPARK Multi-Mode Microplate Reader (Tecan) with excitation and emission filters appropriate for the fluorophore used in the binding experiment. Fluorescence polarization experiments were performed in 384-well, flat bottom, black assay plates (#3575, Corning) in a final volume of 60 µL. The final assay buffer contained: 30 nM fluorescence Probe, 20 nM PHD2 (181-426), 10 mM HEPES, pH 7.4, 150 mM NaCl, 0.05% Tween-20, and at the 1% DMSO (except for DMSO tolerance experiments, in which different DMSO concentrations were used as indicated). All plates measured in fluorescence polarization assays were incubated for a minimum of 30 min at RT. Fluorescence polarization was measured from the top of the well with a Tecan SPARK plate reader with polarized filters and optical modules for fluorescein (λex = 485 nm ± 25 nm, λem = 535 nm ± 25 nm). The standard error of the mean (SEM) values, were calculated by dividing the sample standard deviation by the square root of the sample size and are recorded as ± values for IC 50. Dose-dependent experiments were performed in th e same manner using at least 10 concentrations of the test compounds in 3 -fold serial dilutions from 100 µM. For each assay, negative controls (equivalent to 0% displacement) contained the fluorescent ligand, PHD2 (181 -426), and 20 µL FP buffer; blank cont rols contained only the fluorescent ligand and 40 µL buffer.
The reaction mixtures were incubated at RT for 60 min, then total fluorescence and fluorescence polarization measurements wer e taken. The percentage inhibition was calculated using Equation 1, where mPfree is the signal for the free probe (blank control) and mPbound is the signal for the bound probe (negative control).
IC50s were determined for duplicate measurements by non-linear least-squares analysis using GraphPad Prism 8.0.
The Ki values of the inhibitors were calculated using the Cheng-Prusoff equation.[5] Cheng-Prusoff equation: Ki = IC50 / (1 + [L]/Kd)
The Kd value was determined using a constant concentration of probe and titrating with PHD2 protein at increasing concentrations. [L] represents the concentration of the […] used in the FP assay. […]

[2] = test system: C57BL/6J mouse models of anemia induced by cisplatin; assay: Improvement of anemia induced by cisplatin administration; format: in vivo; conditions: cisplatin-induced anemia mice, po, 20 mg·kg^-1
Description: 5. Pharmacodynamic assay
The experimental mice (SPF, […], male) were obtained from SPF (Beijing) Biotechnology Co., Ltd (permit number: SCXK (Jing) 2019-0010). All animal related experiments were conducted under a China Pharmaceutical University (the certification of using the housing facility of laboratory animals: SYXK (Su) 2018 -0019) IACUC approved protocol in compliance with the guide for the care and use of laboratory animals (number: 202013705). […]
Representative compounds and Roxadustat were formulated in normal saline solution. […]
China Pharmaceutical University (ADVIA 2120 hematology system). […]
5.3 Improvement of anemia induced by cisplatin administration
C57BL/6J mice were treated with cisplatin ( po, 7 mg·kg-1) on days 0, 7, 14, and 28 of the experiment. On the 29th day, the animals were randomized into sham, control, and treated groups (n=5). […]
treatment anemia caused by cisplatin. The mice were treated with the compounds every alternate day for 30 days. the test sample is obtained via orbital venous plexus. The hemoglobin of samples was analyzed in the center for new drug safety evaluation and research at China Pharmaceutical University (ADVIA 2120 hematology system).

Ki [1] | melting point | Structure (SMILES) | Improvement of anemia (%) [2]
483 ± 9 nM | > 300 °C | O=C(N/N=C/c1cc(O)ccc1O)c1cnc(-c2ccccn2)[nH]c1=O [compound 9] | –
639 ± 37 nM | > 300 °C | O=C(N/N=C/c1ccccc1O)c1cnc(-c2ccccn2)[nH]c1=O [compound 8] | –
119 ± 9 nM | – | O=C(O)c1ccccc1/C=N/NC(=O)c1cnc(-c2cccnn2)[nH]c1=O [compound 11] | –
113 ± 5 nM | > 300 °C | O=C(N/N=C/c1cccc(O)c1O)c1cnc(-n2cccn2)[nH]c1=O [compound 1] | –
2620 ± 103 nM | 294.7 to 295.2 °C | O=C(N/N=C/c1ccc(O)c(O)c1)c1cnc(-c2ccccn2)[nH]c1=O [compound 6] | –
103 ± 4 nM | > 300 °C | O=C(O)c1ccc(/C=N/NC(=O)c2cnc(-c3ccccn3)[nH]c2=O)cc1 [compound 12] | –
500 ± 16 nM | > 300 °C | O=C(N/N=C/c1cccc(O)c1O)c1cnc(-c2ncccn2)[nH]c1=O [compound 4] | –
130 ± 4 nM | > 300 °C | O=C(N/N=C/c1ccc(O)c(O)c1O)c1cnc(-c2ccccn2)[nH]c1=O [compound 10] | –
1050 ± 129 nM | > 300 °C | O=C(O)c1ccc(/C=N/NC(=O)c2cnc(-c3ncccn3)[nH]c2=O)cc1 [compound 13] | –
200 ± 8 nM | > 300 °C | O=C(O)c1cc(/C=N/NC(=O)c2cnc(-c3ccccn3)[nH]c2=O)ccc1O [compound 15] | –
155 ± 18 nM | > 300 °C | O=C(O)c1cc(/C=N/NC(=O)c2cnc(-c3cccnn3)[nH]c2=O)ccc1O [compound 14] | –
548 ± 32 nM | > 300 °C | O=C(N/N=C/c1cccc(O)c1O)c1cnc(-n2cncn2)[nH]c1=O [compound 5] | –
72 ± 5 nM | > 300 °C | O=C(N/N=C/c1cc(O)c(O)c(O)c1)c1cnc(-c2ccccn2)[nH]c1=O [compound 7] | –
116 ± 5 nM | > 300 °C | O=C(N/N=C/c1cccc(O)c1Cl)c1cnc(-c2ccccn2)[nH]c1=O [compound 18] | –
– | – | Cc1nc(C(=O)NCC(=O)O)c(O)c2ccc(Oc3ccccc3)cc12 [Roxadustat, reference compound] | 48.5%

Structure (SMILES) | Ki [1] | melting point | Improvement of anemia (%) [2]
O=C(N/N=C/c1cccc(O)c1O)c1cnc(-c2cccnn2)[nH]c1=O [compound 2] | 68 ± 6 nM | – | –
O=C(N/N=C/c1cccc(O)c1O)c1cnc(-c2ccccn2)[nH]c1=O [compound 3] | 48 ± 4 nM | > 300 °C | –
O=C(N/N=C/c1cccc(Cl)c1O)c1cnc(-c2cccnn2)[nH]c1=O [compound 16] | 394 ± 17 nM | > 300 °C | –
